# Legend:
# winter wheat [1] = assay: Normalised plant count of winter wheat, field trials (Example 1, FIG. 1); assay type: in vivo; conditions: average of 6 field trials
# Protocol: A herbicide composition consisting of an SC of 450 g/L napropamide-m was applied to winter wheat either pre- or post-emergence. The normalised plant count was determined as a percentage of the plant count observed in the absence of the herbicide. Control experiments were conducted with the conventional herbicide Trooper, as defined above.
# Results from an average of 6 field trials (napropamide; Trooper low dose: 4 sites; Trooper high dose: 2 sites) with herbicide application in October are shown in FIG. 1. […] Plant survival after emergence was 100% of the survival rate in the absence of napropamide.
# winter wheat [2] = assay: Normalised plant growth of winter wheat at another site (Example 1, FIG. 2); assay type: in vivo; conditions: pre-em
# Protocol: Similar experiments were carried out at another site where the effect of seed depth was to be determined, see Example 3 below. Control experiments were conducted with the conventional herbicides Trooper and Xerton, as defined above.
structure (smiles),measurement,setting,value
"CCN(CC)C(=O)C(C)Oc1cccc2ccccc12 (stereo not drawn) [napropamide, N,N-diethyl-2-(α-naphthoxy) propionamide]",Plant survival after emergence,winter wheat [1]; % of the survival rate in the absence of napropamide,100%
same,effect on the growth of winter wheat,winter wheat [1]; herbicide application in October,no detectable effect
same,Plant survival after emergence,winter wheat [2],comparable with that following application of conventional herbicides Trooper/Malibu and Xerton
same,effect on the growth of winter wheat,winter wheat [2],very low effect

# — patent US20220071205A1, “HERBICIDE” (UPL LTD, priority 2018, published 2022)
